The structures appear in SMILES notation.

Data set [1] deals with KB cells. As to conditions: human.
The nature of data set [2]: Enzymatic stability in rat intestinal homogenate pH 6.5 at 37 °C. Conditions: Sprague-Dawley, pH 6.5, Half-lives, rat intestinal homogenate pH 6.5, 37 °C.
Data set [3] is described as follows: in vitro. As to conditions: human.
The nature of data set [4]: Stability in rat plasma.
For data set [5] the following is noted: in vivo murine model; relative to 2 or its cyclic form 4; cited from earlier work.
The conditions of data set [6]: parent (S)-HPMPA; cited from earlier work.
The test system of data set [7] is Vaccinia virus strain Copenhagen. The data set is described as follows: microbe, parasite or virus in culture. As to conditions: Orthopoxvirus vaccinia, read-out: Antiviral Activity IC50 Vaccinia. It is filed as cell-based.
The subject of data set [8] is Towne strain of HCMV. The data set is described as follows: microbe, parasite or virus in culture. It is filed as cell-based, human cytomegalovirus. Conditions: Human betaherpesvirus 5, read-out: Antiviral Activity IC50 HCMV.
In data set [9] the test system is hPEPT1. As to conditions: hPEPT1 expressed in the model system; cited from earlier work.
Where [10] appears, read: t1/2 Intestinal Homogenate pH 6.5, Rp isomer.
The mark [11] stands for this setting: t1/2 Intestinal Homogenate pH 6.5, Sp isomer.

Regarding `CC(C)OC(=O)[C@@H](N)Cc1ccc(OP2(=O)CO[C@@H](Cn3ccc(N)nc3=O)CO2)cc1` (mixture of isomers) [8´, Isopropyl O-[(5S)-5-[(4-amino-2-oxopyrimidin-1(2H)-yl)methyl]-2-oxido-1,4,2-dioxaphosphinan-2-yl]-(L)-tyrosinate], in data set [1], the IC50 (as a rule, the concentration at which inhibition is half-maximal) was more than 100 µM.

On to `CC(C)CNC(=O)[C@@H](N)Cc1ccc(OP2(=O)CO[C@@H](Cn3cnc4c(N)ncnc43)CO2)cc1` (mixture of isomers) [11´, O-[(5S)-5-[(6-Amino-9H-purin-9-yl)methyl]-2-oxido-1,4,2-dioxaphosphinan-2-yl]-N-(2-methylpropyl)-(L)-tyrosinamide], for which the IC50 in [1] was more than 100 µM.

Regarding `CC(C)OC(=O)[C@@H](N)Cc1ccc(OP2(=O)CO[C@@H](Cn3ccc(N)nc3=O)CO2)cc1` (mixture of isomers) [Compound 8, Isopropyl O-[(5S)-5-[(4-amino-2-oxopyrimidin-1(2H)-yl)methyl]-2-oxido-1,4,2-dioxaphosphinan-2-yl]-(L)-tyrosinate], the half-life at 0.5 mg/ml in [2] (setting [10]) and in data set [2] (setting [11]) was less than 0.5 h in each case. The compound also returned an IC50 in data set [3] of more than 100 µM.

With `CC(C)CNC(=O)[C@@H](N)Cc1ccc(OP2(=O)CO[C@@H](Cn3cnc4c(N)ncnc43)CO2)cc1` (mixture of isomers) [Compound 11, O-[(5S)-5-[(6-Amino-9H-purin-9-yl)methyl]-2-oxido-1,4,2-dioxaphosphinan-2-yl]-N-(2-methylpropyl)-(L)-tyrosinamide], the results for the half-life at 0.5 mg/ml in [2] (setting [10]) and in data set [2] (setting [11]) were 12.8 h and 1.9 h, respectively. In addition, the half-life (commonly the time in which the quantity being followed falls by half) was 3.55 h in [4] (Rp diastereomer) and 0.383 h in [4] (Sp diastereomer). In [3], this compound registered an IC50 of more than 100 µM.

On to `COC(=O)C(COP1(=O)COC(Cn2ccc(N)nc2=O)CO1)NC(=O)C(N)C(C)C` (stereo not drawn) [(L)-Val-(L)-Ser-OMe cHPMPC], for which the “increase in oral bioavailability of total 2 species” value in data set [5] is reported as “eight-fold”.

For the compound `Nc1ncnc2c1ncn2C[C@@H](CO)OCP(=O)(O)O` [Compound 1, (S)-9-[3-hydroxy-2-(phosphonomethoxy)propyl]adenine, reference compound], the IC50 in [3] was more than 100 µM. Besides, the “oral bioavailability of the parent compound” value in [6] is less than 5%.

With `Nc1ccn(C[C@@H](CO)OCP(=O)(O)O)c(=O)n1` [Compound 2, 1-(S)-[3-hydroxy-2-(phosphonomethoxy)propyl]cytosine, reference compound], the IC50 was 20 µM in [7] and more than 100 µM in data set [3].

In data set [3], `Nc1ncnc2c1ncn2C[C@H]1COP(=O)(O)CO1` [Compound 3, (5S)-5-[(6-Amino-9H-purin-9-yl)methyl]-1,4,2-dioxaphosphinan-2-ol 2-oxide, reference compound] had an IC50 of more than 100 µM.

Take `Nc1ccn(C[C@H]2COP(=O)(O)CO2)c(=O)n1` [Compound 4]: the IC50 in data set [7] is 40 µM; in data set [3], more than 100 µM; in data set [8], 0.25 µM.

Regarding `COC(=O)[C@@H](N)Cc1ccc(OP2(=O)CO[C@@H](Cn3ccc(N)nc3=O)CO2)cc1` (stereo partly drawn) [Compound 6, Methyl O-[(5S)-5-[(4-amino-2-oxopyrimidin-1(2H)-yl)methyl]-2-oxido-1,4,2-dioxaphosphinan-2-yl]-(L)-tyrosinate], the half-life at 0.5 mg/ml in data set [2] (setting [10]) and in data set [2] (setting [11]) was less than 0.5 h throughout. In [3], this compound came in with an IC50 of more than 100 µM.

Take `COC(=O)[C@H](N)Cc1ccc(OP2(=O)CO[C@@H](Cn3ccc(N)nc3=O)CO2)cc1` (stereo partly drawn) [Compound 7, Methyl O-[(5S)-5-[(4-amino-2-oxopyrimidin-1(2H)-yl)methyl]-2-oxido-1,4,2-dioxaphosphinan-2-yl]-(D)-tyrosinate]: the half-life at 0.5 mg/ml worked out at 3.5 h in data set [2] (setting [10]) and 1.2 h in data set [2] (setting [11]). The compound further registered an IC50 in [3] of more than 100 µM.

For the compound `CC(C)(C)NC(=O)[C@H](N)Cc1ccc(OP2(=O)CO[C@@H](Cn3ccc(N)nc3=O)CO2)cc1` (stereo partly drawn) [Compound 9, O-[(5S)-5-[(4-Amino-2-oxopyrimidin-1(2H)-yl)methyl]-2-oxido-1,4,2-dioxaphosphinan-2-yl]-N-tert-butyl-(D)-tyrosinamide], the half-life at 0.5 mg/ml is 28.9 h in data set [2] (setting [10]) and 3.85 h in data set [2] (setting [11]). In [3], the IC50 was more than 100 µM.

In the case of `COC(=O)[C@@H](N)Cc1ccc(OP2(=O)CO[C@@H](Cn3cnc4c(N)ncnc43)CO2)cc1` (stereo partly drawn) [Compound 10, Methyl O-[(5S)-5-[(6-amino-9H-purin-9-yl)methyl]-2-oxido-1,4,2-dioxaphosphinan-2-yl]-(L)-tyrosinate], the half-life at 0.5 mg/ml in data set [2] (setting [10]) and in data set [2] (setting [11]) was less than 0.5 h each time. Also, in data set [3], the IC50 is more than 100 µM.

As for `COC(=O)[C@H](Cc1ccc(OP2(=O)CO[C@@H](Cn3cnc4c(N)ncnc43)CO2)cc1)NC(=O)[C@@H](N)C(C)C` (stereo partly drawn) [Compound 13, Methyl (L)-valyl-O-[(5S)-5-[(6-amino-9H-purin-9-yl)methyl]-2-oxido-1,4,2-dioxaphosphinan-2-yl]-(L)-tyrosinate], the half-life at 0.5 mg/ml in data set [2] (setting [10]) and in data set [2] (setting [11]) was less than 0.5 h throughout. In [3], the IC50 was more than 100 µM.

Take `CC(C)CNC(=O)[C@@H](N)Cc1ccc(OP(=O)(O)CO[C@H](CO)Cn2cnc3c(N)ncnc32)cc1` [Compound 28, O-[([[(2S)-1-(6-Amino-9H-purin-9-yl)-3-hydroxypropan-2-yl]oxy]methyl)(hydroxy)phosphoryl]-N-(2-methylpropyl)-(L)-tyrosinamide]: the IC50 in [3] is more than 100 µM.

Take `COC(=O)[C@H](COP1(=O)CO[C@@H](Cn2ccc(N)nc2=O)CO1)NC(=O)[C@@H](N)C(C)C` (stereo partly drawn) [Val-Ser-OMe cHPMPC]: the “binding and transport by hPEPT1” value in data set [9] is listed as “tightly bound but not transported”.

The values above are taken from article PMC3166236 (Journal of medicinal chemistry, 2011).
